SMILES strings stand for the structures.

This test deals with T1, Recombinant human cathepsin A (Homo sapiens, UniProt P10619).
T1 construct: Recombinant human cathepsin A (residues 29-480, with a C-terminal 10-His tag); 10-His (C); purchased R&D Systems 1049-SE
T1 sequence (P10619 29-326 limits assumed): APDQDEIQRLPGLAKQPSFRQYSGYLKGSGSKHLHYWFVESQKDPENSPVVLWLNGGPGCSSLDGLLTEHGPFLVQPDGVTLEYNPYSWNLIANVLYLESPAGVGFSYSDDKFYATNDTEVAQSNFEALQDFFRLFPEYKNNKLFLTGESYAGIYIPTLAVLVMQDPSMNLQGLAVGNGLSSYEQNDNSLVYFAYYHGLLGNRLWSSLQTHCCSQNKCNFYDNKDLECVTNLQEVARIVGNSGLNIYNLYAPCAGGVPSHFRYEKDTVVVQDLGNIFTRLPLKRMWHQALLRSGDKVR
T1 sequence (P10619 327-480 limits assumed): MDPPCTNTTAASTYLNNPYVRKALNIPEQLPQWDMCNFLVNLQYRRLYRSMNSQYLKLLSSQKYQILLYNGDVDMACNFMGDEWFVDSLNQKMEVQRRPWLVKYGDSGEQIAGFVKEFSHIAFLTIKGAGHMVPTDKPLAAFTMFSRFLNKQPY
The test can be described thus: Cathepsin A inhibitory activity. To be noted: activated recombinant human cathepsin A 833 ng/ml, Bodipy FL-labeled bradykinin 2 μM, pH 5.5, 15 min room temperature. In kind it is biochemical. The gist of the method:
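Cathepsin A activated by cathepsin L (15 min, 37 °C, pH 6.0), then preincubated 15 min at room temperature with compound in 25 mM MES pH 5.5, 5 mM DTT. Bodipy FL-bradykinin cleavage ran 15 min at room temperature; substrate and product separated by microfluidic capillary electrophoresis, turnover from peak areas.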

Regarding `Cc1ccccc1[C@H](CC(=O)O)NC(=O)c1cc(S(=O)(=O)N(C)C)oc1C` [Example 46, (S)-3-[(5-Dimethylsulfamoyl-2-methyl-furan-3-carbonyl)-amino]-3-o-tolyl-propionic acid], the IC50 is more than 10 µM.

As for `Cc1oc(-c2ccccc2)nc1C(=O)N[C@@H](CC(=O)O)c1cccc(Cl)c1` [Example 28, (S)-3-(3-Chloro-phenyl)-3-[(5-methyl-2-phenyl-oxazole-4-carbonyl)-amino]-propionic acid], the IC50 worked out at 1.11 µM.

Consider `O=C(O)C[C@H](NC(=O)c1nc(-c2ccccc2)n(-c2ccccc2)n1)c1ccc(Cl)cc1Cl` [Example 125, (S)-3-(2,4-Dichloro-phenyl)-3-[(1,5-diphenyl-1H-[1,2,4]triazole-3-carbonyl)-amino]-propionic acid], for which the IC50 stood at 0.241 µM. On to `Cc1oc(-c2ccccc2F)nc1C(=O)N[C@@H](CC(=O)O)Cc1ccccc1` [Example 29, (R)-3-{[2-(2-Fluoro-phenyl)-5-methyl-oxazole-4-carbonyl]-amino}-4-phenyl-butyric acid], for which the IC50 was 0.542 µM. Under `Cc1ccc([C@H](CC(=O)O)NC(=O)c2noc(-c3ccccc3F)n2)cc1` [Example 12, (S)-3-{[5-(2-Fluoro-phenyl)-[1,2,4]oxadiazole-3-carbonyl]-amino}-3-p-tolyl-propionic acid] stands more than 10 µM. In the case of `Cc1ccc([C@H](CC(=O)O)NC(=O)CCc2nc(-c3ccccc3F)no2)cc1` [Example 52, (S)-3-{3-[3-(2-Fluoro-phenyl)-[1,2,4]oxadiazol-5-yl]-propionylamino}-3-p-tolyl-propionic acid], the IC50 was more than 10 µM. Under `O=C(O)C[C@H](NC(=O)c1nc(-c2ccccc2)n(-c2ccccc2)n1)c1ccccc1` [Example 69, (S)-3-[(1,5-Diphenyl-1H-[1,2,4]triazole-3-carbonyl)-amino]-3-phenyl-propionic acid] stands 0.387 µM; under `O=C(O)C[C@@H](Cc1ccccc1)NC(=O)CCc1nc(-c2ccccc2F)no1` [Example 49, (R)-3-{3-[3-(2-Fluoro-phenyl)-[1,2,4]oxadiazol-5-yl]-propionylamino}-4-phenyl-butyric acid], more than 10 µM. Under `Cc1ccccc1[C@H](CC(=O)O)NC(=O)c1cc(-c2ccc(Cl)cc2)on1` [Example 26, (S)-3-{[5-(4-Chloro-phenyl)-isoxazole-3-carbonyl]amino}-3-o-tolyl-propionic acid] stands more than 10 µM; under `O=C(O)C[C@H](NC(=O)CCc1nc(-c2ccccc2F)no1)c1ccccc1C(F)(F)F` [Example 110, (S)-3-{3-[3-(2-Fluoro-phenyl)-[1,2,4]oxadiazol-5-yl]-propionylamino}-3-(2-trifluoromethyl-phenyl)-propionic acid], more than 10 µM; under `COc1cccc([C@H](CC(=O)O)NC(=O)c2nc(-c3ccccc3)oc2C(F)(F)F)c1OC` [Example 120, (S)-3-(2,3-Dimethoxy-phenyl)-3-[(2-phenyl-5-trifluoromethyl-oxazole-4-carbonyl)-amino]-propionic acid], 8.01 µM.

Turning to `CC(C)c1oc(-c2ccccc2)nc1C(=O)N[C@@H](CC(=O)O)c1ccccc1F` [Example 47, (S)-3-(2-Fluoro-phenyl)-3-[(5-isopropyl-2-phenyl-oxazole-4-carbonyl)-amino]-propionic acid], the IC50 was found to be 2.18 µM. To `CCc1nc(C(=O)N[C@@H](CC(=O)O)c2ccccc2C)nn1-c1c(Cl)cccc1Cl` [Example 108, (S)-3-{[1-(2,6-Dichloro-phenyl)-5-ethyl-1H-[1,2,4]triazole-3-carbonyl]-amino}-3-o-tolyl-propionic acid] belongs 0.35 µM; to `O=C(O)C[C@H](NC(=O)c1nc(-c2ccccc2)oc1C(F)(F)F)c1ccccc1Cl` [Example 97, (S)-3-(2-Chloro-phenyl)-3-[(2-phenyl-5-trifluoromethyl-oxazole-4-carbonyl)-amino]-propionic acid], 7.37 µM.

The values are drawn from US9751858B2, “3-heteroaroylamino-propionic acid derivatives and their use as pharmaceuticals” (SANOFI, priority 2011, dated 2017).
